The text below walks through data of the supplement of paper PMC11616607.

The subject of one experiment is OVCAR8. The experiment in a line: drug sensitivity score (DSS) from 5-point dose-response viability curve (DSS (area-under-curve based score)); higher = more sensitive (stronger growth inhibition or killing); extreme values may be limits of the assay. The note with it: exposure time: 72 h; concentration range: 5 concentrations over 10,000-fold range. In a few lines:
(§1)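 Ovarian cancer and normal ovarian cell lines were tested in 384-well plates. Drugs were acoustically dispensed (Echo 550) in DMSO or water at five concentrations spanning a 10,000-fold range, then 1,500 cells per well were added and incubated 3 days at 37°C, 5% CO2. Viability was read by CellTiter-Glo luminescence on a PHERAstar FS. Drug sensitivity score was derived per cell line and drug with Breeze software; higher means more sensitive, zero means no response.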
Compound `Cc1c(Cn2c(C)nc3c(C(=O)O)cc(N4CCOCC4)cc32)cccc1C(F)(F)F` yielded a drug sensitivity score of 0.
Consider `Cc1ccc(C(=O)N(CCCN)[C@@H](c2oc3cc(Cl)ccc3c(=O)c2Cc2ccccc2)C(C)C)cc1`, for which the drug sensitivity score worked out at 2.9.
In turn, `Cc1cccc(CC(=O)N2CCc3c2ccc(-c2cn(C)c4ncnc(N)c24)c3F)n1` showed a drug sensitivity score of 1.5.
With `Cc1nc(Nc2n[nH]c3c2CN(C(=O)N[C@H](CN(C)C)c2ccccc2)C3(C)C)c2sccc2n1`, the drug sensitivity score was found to be 16.5.
The compound `Cc1ncc(Cl)cc1NCc1ccc(C(=O)N[C@@H](CC2CCCC2)C(=O)NC2CC2)s1` registered a drug sensitivity score of 0.
The same measure, in the same setting: under `Cn1cc(-c2ccc(F)c(C(F)(F)F)c2)nc1C1CCN(c2ncnc3[nH]ncc23)CC1` stands 0.1; under `Cn1cc(C2=Nc3cc(NC(=O)C(N)C4CCCCC4)cc4c3C2=CNNC4=O)cn1` (stereo not drawn), 14.7; under `N#Cc1ccc(COC[C@H]2O[C@@H](n3c(NCc4ccc(Cl)c(Cl)c4)nc4c(N)ncnc43)[C@H](O)[C@@H]2O)cc1`, 5.5.
`NCC(=O)Nc1ccc(-n2nc(C(F)(F)F)cc2-c2ccc3c(ccc4ccccc43)c2)cc1` yielded a drug sensitivity score of 2.7.
As to `NC[C@@](O)(c1ccc(Cl)cc1)c1ccc(-c2cn[nH]c2)cc1`, the drug sensitivity score was found to be 1.1.
Same read-out and setting: the same measure for `Nc1nccc(-c2c(-c3ccc(F)cc3)ncn2C2CCCCC2)n1`: 0.7; for `Nc1ncnc2c1c(COc1cccc(Cl)c1)nn2C1CCOCC1`: 0.
Still for that read-out and setting: under `O=C(NOC[C@H](O)CO)c1ccc(F)c(F)c1Nc1ccc(I)cc1F` stands 1.7.
For `O=C(Nc1ccc2[nH]nc(-c3ccncc3)c2c1)[C@@H]1CCN(CC(=O)N2CCN(c3ccc(-c4ncccn4)cc3)CC2)C1`, the drug sensitivity score came out at 6.7.
`O=C(O)c1ccc(-c2c[nH]c3ncc(-c4ccccc4)cc23)cc1C1CCCC1` came in with a drug sensitivity score of 0.3.
`O=C(O)c1ccc(CN2CCC(CN[C@@H]3C[C@H]3c3ccccc3)CC2)cc1` registered a drug sensitivity score of 0.

A further experiment relates to COV318. The description is as above. The note with it: exposure time: 72 h; concentration range: 5 concentrations over 10,000-fold range. The method in brief: as §1
In turn, `CC(C)(C)C[C@@H]1N[C@@H](C(=O)N[C@H]2CC[C@H](O)CC2)[C@H](c2cccc(Cl)c2F)[C@]12C(=O)Nc1cc(Cl)ccc12` returned a drug sensitivity score of 0.3.
Still for that read-out and setting: under `CC(C)Oc1ccc(C(=O)N[C@H](CNC(=O)CN(C)C)Cc2ccc(-c3cn4cccc([C@H](C)O)c4n3)cc2)cc1Cl` stands 3.9.
Same read-out and setting: under `CC[C@@H]1[C@H](F)C(=O)N[C@@H]1COc1nccc2cc(C(N)=O)c(OC)cc12` stands 0; under `CCc1cncnc1N1CCN(Cc2nc3ccc(C(F)(F)F)cc3[nH]2)CC1`, 1.1; under `CCn1c(-c2nonc2N)nc2cnc(Oc3cccc(NC(=O)c4ccc(OCCN5CCOCC5)cc4)c3)cc21`, 5.7.
As to `CN(C)CC#Cc1ccc(OCCCc2sc(N3CCc4cccc(C(=O)Nc5nc6ccccc6s5)c4C3)nc2C(=O)O)c(F)c1`, the drug sensitivity score was 1.3.
As for `CN(c1ncccc1CNc1nc(Nc2ccc3c(c2)CC(=O)N3)ncc1C(F)(F)F)S(C)(=O)=O`, the drug sensitivity score was 1.9.
Same read-out and setting: under `CNC(=O)c1ccc(C)c(-n2c(C)cc(OCc3ccc(F)cc3F)c(Br)c2=O)c1` stands 0.
The compound `CNS(=O)(=O)Nc1nccc(Cc2c(C)c3ccc(Oc4ncccn4)cc3oc2=O)c1F` showed a drug sensitivity score of 0.
The compound `CNc1ncc2cc(-c3cc(NC(=O)NCCC(C)(C)C)c(F)cc3C)c(C)nc2n1` came in with a drug sensitivity score of 0.8.
On the same count and under the same terms, under `CO[C@@H](C)Cn1c(=O)n(C)c2cnc3ccc(-c4cncc(C(C)(C)O)c4)cc3c21` stands 6.8; under `COc1ccc(Cn2ccc3ccc(C(=O)NO)cc32)cc1`, 0.
The same measure, in the same setting: under `C[C@@H](Oc1ccc2[nH]nc(/C=C/c3cnn(CCO)c3)c2c1)c1c(Cl)cncc1Cl` stands 2.3; under `C[C@@H]1CN(CC(=O)Nc2ccc3c(c2)Cc2cccc(-c4cc(=O)cc(N5CCOCC5)o4)c2S3)C[C@H](C)O1`, 0.
`C[C@H]1C[C@@H](n2c(Nc3ccc(OC(F)(F)F)cc3)nc3cc(CCC(=O)O)ccc32)CC(C)(C)C1` showed a drug sensitivity score of 0.
The compound `Cc1c(-c2c(-c3ccc(F)o3)sc3ncnc(O[C@H](Cc4ccccc4OCc4ccnn4CC(F)(F)F)C(=O)O)c23)ccc(OCCN2CCN(C)CC2)c1Cl` returned a drug sensitivity score of 0.2.
Still for that read-out and setting: under `Cc1c(Cn2c(C)nc3c(C(=O)O)cc(N4CCOCC4)cc32)cccc1C(F)(F)F` stands 0; under `Cc1ccc(C(=O)N(CCCN)[C@@H](c2oc3cc(Cl)ccc3c(=O)c2Cc2ccccc2)C(C)C)cc1`, 1; under `Cc1cccc(CC(=O)N2CCc3c2ccc(-c2cn(C)c4ncnc(N)c24)c3F)n1`, 0.
The same measure, in the same setting: the same measure for `Cc1nc(Nc2n[nH]c3c2CN(C(=O)N[C@H](CN(C)C)c2ccccc2)C3(C)C)c2sccc2n1`: 7.2; for `Cc1ncc(Cl)cc1NCc1ccc(C(=O)N[C@@H](CC2CCCC2)C(=O)NC2CC2)s1`: 0.
In turn, `Cn1cc(-c2ccc(F)c(C(F)(F)F)c2)nc1C1CCN(c2ncnc3[nH]ncc23)CC1` displayed a drug sensitivity score of 0.
Compound `Cn1cc(C2=Nc3cc(NC(=O)C(N)C4CCCCC4)cc4c3C2=CNNC4=O)cn1` (stereo not drawn) displayed a drug sensitivity score of 6.2.
`N#Cc1ccc(COC[C@H]2O[C@@H](n3c(NCc4ccc(Cl)c(Cl)c4)nc4c(N)ncnc43)[C@H](O)[C@@H]2O)cc1` gave a drug sensitivity score of 0.1.
The compound `NCC(=O)Nc1ccc(-n2nc(C(F)(F)F)cc2-c2ccc3c(ccc4ccccc43)c2)cc1` registered a drug sensitivity score of 2.8.
Still for that read-out and setting: the same measure for `NC[C@@](O)(c1ccc(Cl)cc1)c1ccc(-c2cn[nH]c2)cc1`: 3.3; for `Nc1nccc(-c2c(-c3ccc(F)cc3)ncn2C2CCCCC2)n1`: 0.
`Nc1ncnc2c1c(COc1cccc(Cl)c1)nn2C1CCOCC1` had a drug sensitivity score of 0.
For `O=C(NOC[C@H](O)CO)c1ccc(F)c(F)c1Nc1ccc(I)cc1F`, the drug sensitivity score worked out at 0.
On to `O=C(Nc1ccc2[nH]nc(-c3ccncc3)c2c1)[C@@H]1CCN(CC(=O)N2CCN(c3ccc(-c4ncccn4)cc3)CC2)C1`, for which the drug sensitivity score is 0.
`O=C(O)c1ccc(-c2c[nH]c3ncc(-c4ccccc4)cc23)cc1C1CCCC1` returned a drug sensitivity score of 0.
The same measure, in the same setting: the same measure for `O=C(O)c1ccc(CN2CCC(CN[C@@H]3C[C@H]3c3ccccc3)CC2)cc1`: 0.
